Reference: article PMC8179002, “Inhibitors of thiol-mediated uptake” (Chemical Science, 2020)
Where two headings read alike, the source gives them in different places. Each block holds one molecule with its values, some of them ahead of it.

Experiments:
[1] = system: cellular uptake of 1 in HeLa Kyoto cells; assay: cells; assay type: cell-based; conditions: HeLa; for minimal effective concentration / IC50: HeLa Kyoto, removal, tinc 0.5 h with 1 (10 µM); for minimal effective concentration: read-out: MIC, inhibition of cellular uptake of 1; for IC50: read-out: IC50, inhibition of cellular uptake of 1
Description: (§1) With COCs 1 and 2 as cell-penetrating reporters, a fully automated, fluorescent microscopy image-based high-content high-throughput (HCHT)[19] inhibitor screening assay was developed. HeLa cells in multiwell plates are incubated with a reporter at constant and inhibitors at varying concentrations and incubation times. Hindered reporter uptake then causes decrease of fluorescence inside of cells (Fig. 3a). Automated data analysis[19] was established to extract average fluorescence intensity per cell and, at the same time, cell viability from propidium iodide negative nuclei count (Fig. 3 and S3–S6 ^†). Standard assay conditions consisted of pre-incubation of HeLa cells with inhibitors for different periods of time, followed by the removal of inhibitors and the addition of reporters, thus excluding possible interactions between the two in the extracellular environment. In alternative co-incubation conditions, inhibitors were not removed before the addition of reporters to allow for eventual interactions between the two.
4. High-Content High-Throughput (HCHT) Inhibitor Screening
4.1. General Procedure for HCHT Inhibitor Screening
4.1.1. Pre-Incubation of Inhibitors
HeLa Kyoto cells were seeded at 1.2 ×10^4 cells/well in FluoroBrite DMEM + 10% FBS on μ-Plate 96-well Black ibiTreat sterile and kept at 37 °C with 5% CO2 overnight. Next day, serial dilutions of the inhibitors in PBS (10x final concentration), reporter 1 or 2 (100 μM in PBS) and a solution of Hoechst 33342 (100 μg/mL) and PI (10 μg/mL) in PBS were prepared freshly in a 96-well V-bottom plate. Then, cells were washed with PBS ([…]) and the media was exchanged to FluoroBrite DMEM (4 x 150 μL/well) using a plate washer (Biotek EL406®), keeping always a final volume of 135 μL/well. The inhibitor solutions from the V-bottom plate were added to the cells (15 μL/well, 10x final concentration in PBS) using an electronic multichannel pipettes to reach a final volume of 150 μL/well. Cells were incubated for the time of interest (for details of each inhibitors, see Section 4.3 and 4.4) at 37 °C with 5%
CO2. After this, cells were washed again using the plate washer and reporter solution 1 or 2 from the V-bottom plate was added (15 μL/well) using an electronic multichannel pipettes to reach a final volume of 150 μL/well and a final concentration of 10 μM, except for the control wells, where only PBS was added (15 μL/well). After 30 min of incubation at 37 °C with 5% CO2, the plate was washed again using the plate washer. Then, the solution of Hoechst 33342 and PI from V-bottom plate was added (15 μL/well) using an electronic multichannel pipettes to reach a final volume of 150 μL/well. After 15 min of incubation at 37 °C with 5% CO2, the plate was washed one last time and the cells were kept in clean FluoroBrite DMEM. During imaging, samples were kept at 37 °C with 5% CO2 in the microscope.
4.1.2. Co-Incubation of Inhibitors and Reporters […]
serial dilutions of the inhibitors in PBS (10x final concentration), reporter 1 or 2 (110 μM in […]
freshly in a 96-well V-bottom plate. Then, cells were washed with the plate washer. The inhibitor solutions from the V-bottom plate were added to the cells (15 μL/well, 10x final concentration in PBS) using an electronic multichannel pipettes to reach a final volume of 150 μL/well. Cells were incubated for the time of interest (for details of each inhibitors, see Section 4.3 and 4.4) at 37 °C with 5% CO2. Reporter solution 1 or 2 from V-bottom plate was then added (15 μL/well) using an electronic multichannel pipettes to reach a final volume of 165 μL/well and a final concentration of 10 μM 30 min before the next washing process, except for the control wells, where only PBS was added (15 μL/well). The plate was washed again using the plate washer. The solution of Hoechst 33342 and PI from V-bottom plate was added (15 μL/well) using an electronic multichannel pipettes to reach a final volume of 150 μL/well. After […]

[2] = Relative cell viability in HCHT screening (propidium iodide negative nuclei count); assay type: cell-based; conditions: human; for GI50: HeLa, removal, tinc 0.5 h with 1 (10 µM), read-out: GI50, concentration causing 50% cell growth inhibition
Description: as §1
To be able to extract the fluorescent integrated intensity information (sum of the intensities of all the pixels included in the mask) from the green channel for live cell only, the image analysis pipeline contains several steps of cell filtering and selection:
1) Firstly, PI is used to stain any remaining nuclei of dead cell. In the analysis pipeline, all the “dead” nuclei are detected based on their fluorescent intensity in the PI channel (Figure […]
Fig. S4 (A) PI positive nuclei mask (fluorescent intensity threshold of 1000). (B) Overlap image of dead nuclei mask and original all cell body mask. (C) Resulting cell mask after removing any cell marked by a dead nucleus, new mask is called “Live Cell”. Scale bar: 50 μm.
2) Elimination of non-full cells from the border of the image is performed, to avoid inaccurate fluorescent integrated intensity quantification (fluorescent integrated intensity = sum of intensity of all the pixel of the object) (Figure S5).
(1 picture or pasted object on this page, not shown here)
4.3. HCHT Inhibitor Screening with ETP as Reporter […]
(§2) Relative cell viability (RV) for each condition in the presence of inhibitors were calculated using the count value of living cells by dividing the count value of living cells with addition of reporter 1, Hoechst 33342 and PI, for each set of experiments. Duplicates were performed for each condition. The resulting dependence of the relative cell viability (RVrel) to the concentration of inhibitors (cinhibitor) was plotted and fitted with Equation (S2) to retrieve the concentration causing 50% cell growth inhibition (GI50) value and the Hill coefficient (n).
RVrel = 1 / (1 + (GI50 / cinhibitor)n) (S2)
Note: Reporter 1 were not toxic for 1 h at 10 μM.S2 Also in this study, the count value of living cells with addition of reporter 1, Hoechst 33342 and PI is always similar to that of living cells with only addition of Hoechst 33342 and PI.
as §2, with “with” for “in the presence of”, “2,” for “1,”
Note: Reporter 2 were not toxic for 24 h at 10 μM.S3 Also in this study, the count value of living cells with addition of reporter 2, Hoechst 33342 and PI is always similar to that of living cells with only addition of Hoechst 33342 and PI.
4.4.1. Screening with Disulfides as Inhibitors
4.4.1.1. Screening with ETP as Inhibitors
Fig. S35 Automatically analyzed HCHT data showing fluorescence intensity (filled symbols) and relative viability (empty symbols) of HeLa cells after pre-incubation with 3 for 1 h (blue […]

[3] = GI50, concentration causing 50% cell growth inhibition
[4] = 0.5 h, tpre 0.5 h with inhibitor

SMILES: O=C(O)CCCCC1CCSS1 (stereo not drawn) [compound 30]
minimal effective concentration ([1]; 1 h, tpre 1 h with inhibitor): > 2000 µM | minimal effective concentration ([1]; 2 h, tpre 2 h with inhibitor): > 2000 µM | minimal effective concentration ([1]; 4 h, tpre 4 h with inhibitor): > 2000 µM | IC50 ([1]; tpre 1 h with inhibitor): > 2000 µM | IC50 ([1]; tpre 2 h with inhibitor): > 2000 µM | IC50 ([1]; tpre 4 h with inhibitor): > 2000 µM | GI50 at 1 h [2, 3]: > 2000 µM | GI50 at 2 h [2, 3]: > 2000 µM | GI50 at 4 h [2, 3]: > 2000 µM

SMILES: O=C(O)CN1C(=O)C2SSC1C(=O)N2CCOc1ccccc1 (stereo not drawn) [compound 5]
IC50 [1, 4]: 1.1 ± 0.05 µM | minimal effective concentration [1, 4]: 0.1 µM | minimal effective concentration ([1]; 1 h, tpre 1 h with inhibitor): 0.1 µM | minimal effective concentration ([1]; 2 h, tpre 2 h with inhibitor): 0.1 µM | minimal effective concentration ([1]; 4 h, tpre 4 h with inhibitor): 0.1 µM | IC50 ([1]; tpre 1 h with inhibitor): 0.86 ± 0.06 µM | IC50 ([1]; tpre 2 h with inhibitor): 0.98 ± 0.07 µM | IC50 ([1]; tpre 4 h with inhibitor): 1.42 ± 0.26 µM | GI50 ([2]; tpre 0.5 h with inhibitor): 10.3 ± 0.4 µM | GI50 ([2]; tpre 1 h with inhibitor): 7 ± 0.6 µM | GI50 ([2]; tpre 2 h with inhibitor): ~4.7 µM | GI50 ([2]; tpre 4 h with inhibitor): ~4.1 µM

IC50 ([1]; tpre 1 h with inhibitor): > 500 µM | IC50 ([1]; tpre 2 h with inhibitor): > 500 µM
SMILES: C=CCS[S+]([O-])CC=C (stereo not drawn) [compound 25, allicin, reference compound]
Inhibition of uptake of reporter 1, in words [1]: disappointing | minimal effective concentration ([1]; 1 h, tpre 1 h with inhibitor): > 500 µM | minimal effective concentration ([1]; 2 h, tpre 2 h with inhibitor): > 500 µM | GI50 at 1 h [2, 3]: > 500 µM | GI50 at 2 h [2, 3]: > 500 µM

SMILES: O[C@@H]1CSSC[C@@H]1O [compound 29]
minimal effective concentration ([1]; 1 h, tpre 1 h with inhibitor): > 2000 µM | minimal effective concentration ([1]; 2 h, tpre 2 h with inhibitor): > 2000 µM | minimal effective concentration ([1]; 4 h, tpre 4 h with inhibitor): > 2000 µM | IC50 ([1]; tpre 1 h with inhibitor): > 2000 µM | IC50 ([1]; tpre 2 h with inhibitor): > 2000 µM | IC50 ([1]; tpre 4 h with inhibitor): > 2000 µM | GI50 ([2]; tpre 1 h with inhibitor): > 2000 µM | GI50 ([2]; tpre 2 h with inhibitor): > 2000 µM | GI50 ([2]; tpre 4 h with inhibitor): > 2000 µM

SMILES: CNC(=O)[C@H](CS[S+]([O-])C[C@H](NC(=O)OC(C)(C)C)C(=O)NC)NC(=O)OC(C)(C)C (stereo partly drawn) [compound 26]
Inhibition of uptake of reporter 1, in words [1]: disappointing | minimal effective concentration ([1]; 1 h, tpre 1 h with inhibitor): > 1000 µM | IC50 ([1]; tpre 1 h with inhibitor): > 1000 µM | GI50 ([2]; tpre 1 h with inhibitor): > 1000 µM

SMILES: CCN1C(=O)C2SSC1C(=O)N2CC(=O)NCC[N+](C)(C)C (stereo not drawn) [compound 12]
IC50 [1, 4]: > 100 µM | minimal effective concentration [1, 4]: 30 µM | minimal effective concentration ([1]; 1 h, tpre 1 h with inhibitor): 30 µM | minimal effective concentration ([1]; 2 h, tpre 2 h with inhibitor): 30 µM | IC50 ([1]; tpre 1 h with inhibitor): > 100 µM | IC50 ([1]; tpre 2 h with inhibitor): > 100 µM | MIC (concentration that causes ∼15% reduction of reporter uptake), against reporter 1 ([1]; pre-incubation time not given (Fig. 2: 1 h pre-incubation, 30 min with reporter; some 15 min)): ≈ 30 μM | GI50 ([2]; tpre 0.5 h with inhibitor): > 100 µM | GI50 ([2]; tpre 1 h with inhibitor): > 100 µM | GI50 ([2]; tpre 2 h with inhibitor): > 100 µM
